Article PMC5927115 (Japanese Journal of Cancer Research : Gann, 2002)
Where two headings read alike, the source gives them in different places.

How the values were obtained:
EGFR [1] = molecular target: EGFR (Homo sapiens, UniProt P00533); test: PTK; assay type: biochemical
v-Src [2] = molecular target: T1, v-Src (Rous sarcoma virus, UniProt P00524); test: PTK activity of immunopurified v-Src, 32P incorporation into Raytide; assay type: biochemical; settings: for mode of inhibition of v-Src with respect to ATP: various ATP concentrations
KDR/Flk-1 = KDR/Flk-1 (Homo sapiens, UniProt P35968); test: PTK activity in KDR/Flk-1-NIH3T3 cells; assay type: cell-based
Flt-1 = Flt-1 (Homo sapiens, UniProt P17948); test: PTK activity in Flt-1-overexpressing NIH3T3 cells; assay type: cell-based
[3] = molecular target: catalytic subunit of protein kinase A (Bos taurus, UniProt P00517); test: Activity of isolated catalytic subunit of protein kinase A; assay type: biochemical, bovine; settings: treatment with as much as 100 M; results not shown
PTK = assay type: biochemical; settings: SR-3Y1 lysate
protein kinase A = test: Simultaneous protein kinase detection in SR-3Y1 lysate: protein kinase A bands; assay type: biochemical
protein kinase C = test: Simultaneous protein kinase detection in SR-3Y1 lysate: protein kinase C bands; assay type: biochemical
[4] = molecular target: eukaryotic elongation factor-2 kinase, and calmodulin-dependent protein kinase III (Rattus norvegicus, UniProt P70531); test: Simultaneous protein kinase detection in SR-3Y1 lysate: eEF-2K, CaMK III bands; assay type: biochemical
A431 cells = test: Cell-growth inhibition of carcinoma A431 cells; assay type: cell-based; settings: Homo sapiens, A-431, read-out: IC50 for cell-growth inhibition
SR-3Y1 cells = test: Cell-growth inhibition of SR-3Y1 cells; assay type: cell-based; settings: SR3Y1, read-out: IC50 for cell-growth inhibition
NCI-H522 = test: Cell death in human cancer cell line panel; assay type: cell-based; settings: NCI-H522 lung cancer cells, 48 h
DMS114 = test: Cell death in human cancer cell line panel; assay type: cell-based; settings: DMS114 lung cancer cells, 48 h
HL-60 cells = settings: cited from earlier work
[5] = system: receptor for fibroblast growth factor; settings: ATP-binding site of the catalytic domain; cited from earlier work
EGFR [6] = settings: cited from earlier work
[7] = system: 37 lines of cancer cells derived from human solid tumors; test: Cell death in panel of 37 lines of cancer cells derived from human solid tumors; assay type: cell-based; settings: 37 human solid tumor lines, 48 h
sarcoma 180 tumor cells = settings: mice implanted with sarcoma 180 tumor cells; cited from earlier work
topoisomerases I = settings: cited from earlier work
topoisomerases II = settings: cited from earlier work
v-Src [8] = molecular target: T1, v-Src; settings: cited from earlier work

EGFR (Homo sapiens, UniProt P00533), sequence (P00533 25-1210, looked up): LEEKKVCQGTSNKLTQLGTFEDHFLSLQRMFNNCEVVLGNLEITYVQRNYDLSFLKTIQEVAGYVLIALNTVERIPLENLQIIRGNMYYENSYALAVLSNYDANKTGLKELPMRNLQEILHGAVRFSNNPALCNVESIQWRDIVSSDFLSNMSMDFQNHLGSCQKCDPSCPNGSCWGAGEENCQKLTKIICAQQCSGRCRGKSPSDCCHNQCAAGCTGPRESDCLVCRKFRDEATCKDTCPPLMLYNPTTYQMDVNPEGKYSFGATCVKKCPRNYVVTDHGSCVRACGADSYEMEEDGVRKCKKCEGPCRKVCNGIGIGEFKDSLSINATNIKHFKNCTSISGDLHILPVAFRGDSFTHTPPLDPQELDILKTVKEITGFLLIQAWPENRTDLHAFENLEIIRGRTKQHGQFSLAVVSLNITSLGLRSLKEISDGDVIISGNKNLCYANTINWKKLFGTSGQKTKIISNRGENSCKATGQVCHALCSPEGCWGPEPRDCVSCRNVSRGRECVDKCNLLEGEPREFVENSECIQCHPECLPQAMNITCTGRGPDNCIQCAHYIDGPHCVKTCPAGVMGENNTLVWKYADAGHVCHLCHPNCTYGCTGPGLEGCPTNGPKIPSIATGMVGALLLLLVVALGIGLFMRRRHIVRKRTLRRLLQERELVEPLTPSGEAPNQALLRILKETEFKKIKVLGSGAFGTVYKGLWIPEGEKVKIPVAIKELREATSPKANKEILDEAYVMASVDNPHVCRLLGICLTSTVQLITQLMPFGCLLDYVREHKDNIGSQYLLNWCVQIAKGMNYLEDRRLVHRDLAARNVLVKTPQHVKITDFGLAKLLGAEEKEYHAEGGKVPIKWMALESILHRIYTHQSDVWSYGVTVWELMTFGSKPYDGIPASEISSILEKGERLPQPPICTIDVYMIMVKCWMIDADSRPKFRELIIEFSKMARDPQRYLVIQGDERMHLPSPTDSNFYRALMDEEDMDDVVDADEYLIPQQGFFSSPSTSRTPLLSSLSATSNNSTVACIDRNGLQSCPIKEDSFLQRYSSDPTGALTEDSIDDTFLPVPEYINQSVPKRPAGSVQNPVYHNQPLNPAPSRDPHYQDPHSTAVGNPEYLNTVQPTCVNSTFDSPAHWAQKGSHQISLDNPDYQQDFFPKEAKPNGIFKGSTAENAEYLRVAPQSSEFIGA
KDR/Flk-1, sequence (P35968 20-1356): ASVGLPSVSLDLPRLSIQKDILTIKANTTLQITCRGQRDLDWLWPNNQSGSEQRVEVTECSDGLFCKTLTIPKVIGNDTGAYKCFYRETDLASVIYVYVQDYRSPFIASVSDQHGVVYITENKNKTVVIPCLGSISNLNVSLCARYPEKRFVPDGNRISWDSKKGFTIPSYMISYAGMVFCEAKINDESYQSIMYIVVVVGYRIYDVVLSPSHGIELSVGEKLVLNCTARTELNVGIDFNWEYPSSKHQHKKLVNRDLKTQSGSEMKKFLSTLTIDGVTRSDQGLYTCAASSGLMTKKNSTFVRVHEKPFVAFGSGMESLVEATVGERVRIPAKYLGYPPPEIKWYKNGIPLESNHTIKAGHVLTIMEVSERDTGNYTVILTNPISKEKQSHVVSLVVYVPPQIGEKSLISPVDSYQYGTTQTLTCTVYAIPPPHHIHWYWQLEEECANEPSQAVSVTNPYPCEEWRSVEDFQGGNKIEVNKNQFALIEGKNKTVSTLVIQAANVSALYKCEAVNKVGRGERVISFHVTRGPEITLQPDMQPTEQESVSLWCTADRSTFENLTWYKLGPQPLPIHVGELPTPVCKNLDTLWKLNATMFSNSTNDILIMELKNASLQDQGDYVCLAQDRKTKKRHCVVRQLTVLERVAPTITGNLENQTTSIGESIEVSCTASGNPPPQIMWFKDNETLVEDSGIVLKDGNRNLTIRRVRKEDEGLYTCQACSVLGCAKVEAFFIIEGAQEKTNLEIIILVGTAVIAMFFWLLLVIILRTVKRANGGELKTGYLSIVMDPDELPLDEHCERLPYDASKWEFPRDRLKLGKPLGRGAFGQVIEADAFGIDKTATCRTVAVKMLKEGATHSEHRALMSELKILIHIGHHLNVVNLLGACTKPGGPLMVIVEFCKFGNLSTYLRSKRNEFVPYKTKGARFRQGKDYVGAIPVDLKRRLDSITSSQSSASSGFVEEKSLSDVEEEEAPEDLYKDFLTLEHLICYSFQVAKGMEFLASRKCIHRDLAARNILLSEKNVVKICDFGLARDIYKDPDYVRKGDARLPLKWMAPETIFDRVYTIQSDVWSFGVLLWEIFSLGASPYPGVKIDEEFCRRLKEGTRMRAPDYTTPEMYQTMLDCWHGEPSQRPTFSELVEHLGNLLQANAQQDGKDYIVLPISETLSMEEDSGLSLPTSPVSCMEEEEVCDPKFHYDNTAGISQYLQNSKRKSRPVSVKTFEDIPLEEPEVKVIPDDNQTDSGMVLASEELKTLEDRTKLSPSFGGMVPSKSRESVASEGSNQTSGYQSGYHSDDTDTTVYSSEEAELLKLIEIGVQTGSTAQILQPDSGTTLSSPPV
T1 sequence (P00524 2-526): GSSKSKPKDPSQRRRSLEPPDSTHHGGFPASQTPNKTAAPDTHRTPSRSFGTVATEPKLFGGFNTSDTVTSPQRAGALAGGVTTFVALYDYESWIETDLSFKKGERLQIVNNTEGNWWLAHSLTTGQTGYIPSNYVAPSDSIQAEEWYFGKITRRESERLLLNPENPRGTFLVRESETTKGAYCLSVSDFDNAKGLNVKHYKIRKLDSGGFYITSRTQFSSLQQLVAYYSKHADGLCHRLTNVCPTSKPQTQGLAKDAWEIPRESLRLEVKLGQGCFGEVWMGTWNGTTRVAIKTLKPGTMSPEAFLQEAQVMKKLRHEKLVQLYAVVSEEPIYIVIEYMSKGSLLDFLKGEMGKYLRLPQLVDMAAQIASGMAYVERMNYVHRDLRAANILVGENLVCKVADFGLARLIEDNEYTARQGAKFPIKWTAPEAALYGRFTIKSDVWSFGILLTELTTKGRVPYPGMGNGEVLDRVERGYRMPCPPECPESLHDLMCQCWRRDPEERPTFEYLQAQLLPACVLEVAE
eukaryotic elongation factor-2 kinase, and calmodulin-dependent protein kinase III, sequence (P70531 2-724): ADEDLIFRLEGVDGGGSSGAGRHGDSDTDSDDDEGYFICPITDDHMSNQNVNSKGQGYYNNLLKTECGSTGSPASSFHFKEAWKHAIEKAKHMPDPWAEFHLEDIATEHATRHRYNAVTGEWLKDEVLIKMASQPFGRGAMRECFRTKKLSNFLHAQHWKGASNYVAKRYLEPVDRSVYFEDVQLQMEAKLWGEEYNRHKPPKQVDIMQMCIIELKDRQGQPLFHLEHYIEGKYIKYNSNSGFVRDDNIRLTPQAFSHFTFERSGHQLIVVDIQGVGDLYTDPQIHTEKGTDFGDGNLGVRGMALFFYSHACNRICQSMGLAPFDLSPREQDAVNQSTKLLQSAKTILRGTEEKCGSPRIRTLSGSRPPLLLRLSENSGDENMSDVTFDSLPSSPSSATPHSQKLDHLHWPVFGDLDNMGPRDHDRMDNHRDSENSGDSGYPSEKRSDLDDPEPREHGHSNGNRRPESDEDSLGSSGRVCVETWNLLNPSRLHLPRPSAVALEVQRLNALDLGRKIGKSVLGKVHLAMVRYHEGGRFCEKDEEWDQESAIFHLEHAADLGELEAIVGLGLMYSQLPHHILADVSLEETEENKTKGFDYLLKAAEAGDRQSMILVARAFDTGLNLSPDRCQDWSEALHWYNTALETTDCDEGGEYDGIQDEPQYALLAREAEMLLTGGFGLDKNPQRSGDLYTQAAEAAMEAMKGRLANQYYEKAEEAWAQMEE
Flt-1, sequence (P17948 27-1338, species assumed): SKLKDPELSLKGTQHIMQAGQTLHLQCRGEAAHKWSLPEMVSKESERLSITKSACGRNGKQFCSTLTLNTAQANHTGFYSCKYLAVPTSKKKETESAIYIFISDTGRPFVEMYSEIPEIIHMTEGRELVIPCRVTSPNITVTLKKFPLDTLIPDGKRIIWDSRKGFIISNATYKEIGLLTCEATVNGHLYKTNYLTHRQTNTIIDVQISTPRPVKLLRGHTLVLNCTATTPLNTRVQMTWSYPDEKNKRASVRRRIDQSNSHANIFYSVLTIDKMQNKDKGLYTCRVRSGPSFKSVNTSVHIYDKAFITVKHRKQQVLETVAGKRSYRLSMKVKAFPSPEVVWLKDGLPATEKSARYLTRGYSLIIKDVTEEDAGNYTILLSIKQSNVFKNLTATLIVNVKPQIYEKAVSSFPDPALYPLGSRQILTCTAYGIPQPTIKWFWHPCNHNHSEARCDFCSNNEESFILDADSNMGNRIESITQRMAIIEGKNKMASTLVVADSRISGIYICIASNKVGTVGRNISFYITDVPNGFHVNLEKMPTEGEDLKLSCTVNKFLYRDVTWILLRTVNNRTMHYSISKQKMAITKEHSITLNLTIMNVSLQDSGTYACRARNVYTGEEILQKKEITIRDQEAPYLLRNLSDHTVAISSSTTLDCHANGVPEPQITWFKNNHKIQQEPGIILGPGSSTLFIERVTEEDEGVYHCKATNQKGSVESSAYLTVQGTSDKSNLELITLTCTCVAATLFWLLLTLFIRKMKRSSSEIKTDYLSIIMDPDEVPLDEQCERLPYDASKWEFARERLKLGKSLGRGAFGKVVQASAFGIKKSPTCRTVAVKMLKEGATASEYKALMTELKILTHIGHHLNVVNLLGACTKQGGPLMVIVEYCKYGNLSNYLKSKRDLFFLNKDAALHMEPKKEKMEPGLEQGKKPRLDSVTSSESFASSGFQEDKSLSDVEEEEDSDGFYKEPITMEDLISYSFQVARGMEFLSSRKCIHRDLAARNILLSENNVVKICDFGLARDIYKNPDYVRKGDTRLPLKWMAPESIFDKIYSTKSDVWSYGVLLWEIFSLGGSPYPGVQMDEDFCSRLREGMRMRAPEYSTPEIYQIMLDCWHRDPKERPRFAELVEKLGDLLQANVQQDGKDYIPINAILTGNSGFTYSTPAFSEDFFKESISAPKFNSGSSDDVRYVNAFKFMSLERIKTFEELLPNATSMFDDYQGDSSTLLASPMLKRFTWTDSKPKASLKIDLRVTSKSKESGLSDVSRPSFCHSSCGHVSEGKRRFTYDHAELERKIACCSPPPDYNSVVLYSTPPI

With `CC(C)=CC[C@@H](OC(=O)CC(C)(C)O)C1=CC(=O)c2c(O)ccc(O)c2C1=O` [β‐HIVS, β‐Hydroxyisovalerylshikonin] the IC50 (EGFR [1]) was roughly 700 nM, the “inhibition of tyrosine kinase activity of EGFR (in words)” value (EGFR [1]) was “strongly inhibited” and the “inhibition of tyrosine phosphorylation of EGFR” value (EGFR [1]) was “evident”. For the same compound, the IC50 (v-Src [2]) was roughly 1000 nM, the “inhibition of tyrosine kinase activity of v-Src (in words)” value (v-Src [2]) was “strongly inhibited” and the “mode of inhibition of v-Src with respect to ATP” value (v-Src [2]; Lineweaver-Burk, 1 and 10 M inhibitor) was “non‐competitive”. The “mode of inhibition of v-Src with respect to ATP” value (v-Src [2]; Lineweaver-Burk, 1 and 10 M inhibitor, listed as -HIVS) was “did not compete with ATP”, the “mode of inhibition of v-Src with respect to substrate Raytide” value (v-Src [2]; Lineweaver-Burk, various Raytide concentrations, 1 and 10 M inhibitor) was “competitively inhibited” and the IC50 (KDR/Flk-1) was roughly 2500 nM. The “concentration needed to inhibit the tyrosine kinase activity of KDR/Flk-1” value (KDR/Flk-1; KDR/Flk-1-NIH3T3 cells) was “more than 1 M”, the “inhibition of PTK activity of KDR/Flk-1 (in words)” value (KDR/Flk-1; KDR/Flk-1-NIH3T3 cells) was “weakly inhibited” and the “inhibition of PTK activity of KDR/Flk-1 (in words)” value (KDR/Flk-1; KDR/Flk-1-NIH3T3 cells, listed as -HIVS) was “inhibited significantly”. The IC50 (Flt-1) was greater than 5 µM, the “change in activity of catalytic subunit of protein kinase A” value [3] was “practically no change” and the “intensities of bands of proteins phosphorylated by PTK” value (PTK) was “decreased markedly”. The “intensities of bands of proteins phosphorylated by protein kinase A” value (protein kinase A) was “not significantly altered”, the “intensities of bands of proteins phosphorylated by protein kinase C” value (protein kinase C) was “not significantly altered” and the “intensities of bands of proteins phosphorylated by eEF-2 kinase and CaMK III” value [4] was “not significantly altered”. The IC50 (A431 cells) was roughly 11 µM, the IC50 (SR-3Y1 cells) was roughly 1200 nM and the induction of cell-death (NCI-H522) was “efficiently induced cell-death”. For the same compound, the induction of cell-death (DMS114) was “efficiently induced cell-death” and the induction of apoptosis (HL-60 cells) was “induced apoptosis”.

In the case of `Cc1[nH]c(/C=C2\C(=O)Nc3ccccc32)c(C)c1CCC(=O)O` [SU6668], the “mode of inhibition of receptor for fibroblast growth factor with respect to ATP” value [5] is listed as “compete with ATP”.

In the case of `O=CN/C=C/c1cc(O)ccc1O` [erbstatin], the “mode of inhibition of PTK activity of EGFR with respect to ATP” value (“mode of inhibition of PTK activity … to ATP” below) (EGFR [6]) is given as “competition with ATP”.

For `O=c1c(-c2ccc(O)cc2)coc2cc(O)cc(O)c12` [genistein], the “mode of inhibition of PTK activity … to ATP” value (EGFR [6]) is listed as “competition with ATP”.

For `CC(C)=CC[C@@H](O)C1=CC(=O)c2c(O)ccc(O)c2C1=O` [shikonin, reference compound], the “IC50 for EGFR” value (EGFR [1]; EGFR isolated from A431 cells, estimated from Fig. 4B) was “impossible to estimate”, the “concentration required for inhibition of the PTK activity of EGFR” value (EGFR [1]; Fig. 4A) was “more than 10 M” and the “PTK activity of v-Src remaining in the presence of inhibitor” value (v-Src [2]; lowest level reached over concentrations tested (Fig. 5)) was no less than 50%. For the same compound, the “inhibition of PTK activity of KDR/Flk-1 (in words)” value (KDR/Flk-1; KDR/Flk-1-NIH3T3 cells) was “inhibited significantly”, the “intensities of bands of proteins phosphorylated by PTK” value (PTK) was “decreased markedly” and the “intensities of bands of proteins phosphorylated by protein kinase A” value (protein kinase A) was “not significantly altered”. For the same compound, the “intensities of bands of proteins phosphorylated by protein kinase C” value (protein kinase C) was “not significantly altered”, the “intensities of bands of proteins phosphorylated by eEF-2 kinase and CaMK III” value [4] was “not significantly altered” and the “induction of cell death across the panel” value [7] was “induced cell death in a wide variety of tumor cell lines”. The antitumor activity (sarcoma 180 tumor cells) was “exhibits antitumor activity”, the “inhibition of topoisomerase I activity” value (topoisomerases I) was “inhibit” and the “inhibition of topoisomerase II activity” value (topoisomerases II) was “inhibit”.

In the case of `CNc1cc2c(Nc3cccc(Br)c3)ncnc2cn1` [PD158780, 4‐[(3‐bromophenyl)amino]‐6‐(methylamino)‐pyrido[3,4‐d]pyrimidine], the “mode of inhibition of PTK activity … to ATP” value (EGFR [6]) is listed as “competition with ATP”.

For `O=c1c(O)c(-c2ccc(O)c(O)c2)oc2cc(O)cc(O)c12` [quercetin], the “mode of inhibition of v-Src with respect to ATP” value (v-Src [8]) is listed as “competition with ATP” and the IC50 (v-Src [8]; read-out: IC50 on v-Src) is listed as 3 µM.

For `O=C(O)c1cc(N(Cc2ccccc2O)Cc2cc(O)ccc2O)ccc1O` [lavendastin-A], the “mode of inhibition of PTK activity … to ATP” value (EGFR [6]) is given as “competition with ATP”.
